This is an account of results in ChEMBL document CHEMBL5126655, “Koshidacins A and B, Antiplasmodial Cyclic Tetrapeptides from the Okinawan Fungus Pochonia boninensis FKR-0564” (J Nat Prod, 2022).

A short description of series [1]: Selectivity index, ratio of CC50 for human MRC5 cells to IC50 for plasmodium falciparum K1. The class given is toxicity. The settings on record: read-out: Ratio CC50/IC50.
Series [2] relates to Plasmodium falciparum. Briefly: Antiplasmodial activity against Plasmodium falciparum K1 assessed as reduction in parasite growth incubated for 72 hr by LDH assay. In kind it is functional, organism-based. The settings on record: K1, 72 h.
Another series concerns Plasmodium berghei. Briefly: Antiplasmodial activity against plasmodium berghei N strain infected in ICR(CD1) mouse assessed as inhibition of parasitemia at 30 mg/kg, ip administered for 3 days relative to control. The following applies: 72 h, time 3 day. In kind it is functional.
Series [3] in a line: Selectivity index, ratio of CC50 for human MRC5 cells to IC50 for plasmodium falciparum FCR3. In kind it is toxicity. The following applies: read-out: Ratio CC50/IC50.
Series [4] has as its system Plasmodium falciparum. Briefly: Antiplasmodial activity against Plasmodium falciparum FCR3 assessed as reduction in parasite growth incubated for 72 hr by LDH assay. The class given is functional, organism-based. The settings on record: FCR3, 72 h.
The nature of series [5]: Cytotoxicity against human MRC5 cells assessed as reduction in cell viability after 24 hrs by MTT assay. The class given is toxicity, cell-based.
Series [6] can be described thus: Inhibition of HDAC in Plasmodium falciparum infected in human erythrocytes incubated for 2 hr in presence of sodium [14C]acetate by radiometry assay. The class given is cell-based. The settings on record: Erythrocyte.

Bounds are passed on as bounds.

For `CC1(C)NC(=O)[C@H](CCCCCC(=O)[C@@H](O)CO)NC(=O)[C@H]2CCCN2C(=O)[C@H](Cc2ccccc2)NC1=O`, the values for the selectivity ratio in series [1] and in series [3] were 18.4 and 16.3, respectively. Further, the IC50 with Plasmodium falciparum [2] came out at 830 nM; in the series on Plasmodium falciparum [4], 890 nM. Besides, the inhibition in vivo at 30 mg/kg with Plasmodium berghei was determined as 41%. In series [5], the CC50 at 24 h was 14700 nM.

Consider `CC1(C)NC(=O)[C@H](CCCCC[C@@H](O)[C@@H](O)CO)NC(=O)[C@H]2CCCN2C(=O)[C@H](Cc2ccccc2)NC1=O`, for which the selectivity ratio in series [1] was found to be 0.5; in series [3], 0.4. Besides, the IC50 came to 12500 nM in the series on Plasmodium falciparum [2] and 17100 nM in the series on Plasmodium falciparum [4]. Moreover, in the series with Plasmodium berghei, the inhibition in vivo at 30 mg/kg was determined as 18.3%. Besides, in series [5], the CC50 at 24 h stood at 6800 nM.

Turning to `CCC(=O)CCCCC[C@@H]1NC(=O)[C@H]2CCCCN2C(=O)[C@H]([C@@H](C)CC)NC(=O)[C@H](Cc2cn(OC)c3ccccc23)NC1=O` [APICIDIN], the IC50 in series [6] came to 0.7 nM.

For the compound `C[C@@H]1CC[C@H]2[C@@H](C)C(=O)O[C@@H]3O[C@@]4(C)CC[C@@H]1[C@]32OO4` [ARTEMISININ], the figures for the selectivity ratio in series [1] and in series [3] were more than 1140 and more than 961, respectively. The figures for the IC50 in the series on Plasmodium falciparum [2] and in the series on Plasmodium falciparum [4] were 22 nM and 26 nM, respectively. Moreover, in the series with Plasmodium berghei, the inhibition in vivo at 30 mg/kg came to 99.7%. The CC50 at 24 h in series [5] was more than 25000 nM.
